Experimental data taken from patent publication US20070173522A1, “4-(2-Phenylsulfanyl-phenyl)-1,2,3,6- tetrahydropyridine derivatives as serotonin reuptake inhibitors” (priority 2003, published 2007).

How the values were obtained:
[1] = target: T1, serotonin reuptake (5-HT uptake into rat cortical synaptosomes) (Rattus norvegicus, UniProt P31652); assay: Measurements of [3H]-5-HT uptake into rat cortical synaptosomes; format: biochemical; details: result in words; test described in the examples section
T1 construct: Whole brains from male Wistar rats (125-225 g), excluding cerebellum, are homogenized; from tissue; host or cells: synaptosomal preparation from whole brain (excluding cerebellum) of male Wistar rats
Procedure: Measurements of [^3]-5-HT Uptake into Rat Cortical Synaptosomes.
Whole brains from male Wistar rats (125-225 g), excluding cerebellum, are homogenized in 0.32 M sucrose supplemented with 1 mM nialamid with a glass/teflon homogenizer. The homogenate is centrifuged at 600×g for 10 mil at 4° C. The pellet is discarded and the supernatant is centrifuged at 20.000×g for 55 min. The final pellet is homogenized (20 sec) in this assay buffer (0.5 mg original tissue/well). Test compounds (or buffer) and 10 nM [^3H]-5-HT are added to 96 well plates and shaken briefly. Composition of assay buffer: 123 mM NaCl, 4.82 mM KCl, 0.973 mM CaCl2, 1.12 mM MgSO4, 12.66 mM Na2HPO4, 2.97 mM NaH2PO4, 0.162 mM EDTA, 10 mM glucose and 1 mM ascorbic acid. Buffer is oxygenated with 95% O2/5% CO2 for 10 min at 37° C. and pH is adjusted 7.4. The incubation is started by adding tissue to a final assay volume of 0.2 mL. After 15 min incubation with radioligand at 37° C., samples are filtered directly on Unifilter GF/C glass fiber filters (soaked for 1 hour in 0.1% polyethylenimine) under vacuum and immediately washed with 3×0.2 ml assay buffer. Non-specific uptake is determined using citalopram (10 μM final concentration). Citalopram is included as reference in all experiments as dose-response curve.

[2] = target: T2, norepinephrine uptake (noradrenaline uptake into rat cortical synaptosomes) (Rattus norvegicus, UniProt Q63380); assay: Measurements of [3H]noradrenaline uptake into rat cortical synaptosomes; format: biochemical; details: result in words; test described in the examples section
T2 construct: Fresh cortex from male Wistar rats (125-225 g) are homogenized in 0.4M sucrose; from tissue; host or cells: synaptosomal preparation from fresh cortex of male Wistar rats
Procedure: Measurements of ^3H]Noradrenaline Uptake into Rat Cortical Synaptosomes.
Fresh cortex from male Wistar rats (125-225 g) are homogenized in 0.4M sucrose with a glass/teflon homogenizer. The homogenate is centrifuged at 600×g for 10 min at 4° C. The pellet is discarded and the supernatant is centrifuged at 20.000×g for 55 min. The final pellet is homogenized (20 sec) in this assay buffer (6 mg original tissue/mL=4 mg/well). Test compounds (or buffer) and 10 nM [^3H]-noradrenaline are added to deep 96 well plates and shaken briefly. Composition of assay buffer: 123 mM NaCl, 4.82 mM KCl, 0.973 mM CaCl2, 1.12 mM MgSO4, 12.66 mM Na2HPO4, 2.97 mM NaH2PO4, 0.162 mM EDTA, 10 mM glucose and 1 mM ascorbic acid. Buffer is oxygenated with 95% O2/5% CO2 for 10 min at 37° C. and pH is adjusted 7.4. The incubation is started by adding tissue to a final assay volume of 1 ml. After 15 min incubation with radioligand at 37° C., samples are filtered directly on Unifilter GF/C glass fiber filters (soaked for 1 hour in 0.1% polyethylenimine) under vacuum and immediately washed with 3×1 mL assay buffer. Non-specific uptake is determined using talsupram (10 μM final concentration). Duloxetine is included as reference in all experiments as dose-response curve.

T2 sequence (Q63380 1-617): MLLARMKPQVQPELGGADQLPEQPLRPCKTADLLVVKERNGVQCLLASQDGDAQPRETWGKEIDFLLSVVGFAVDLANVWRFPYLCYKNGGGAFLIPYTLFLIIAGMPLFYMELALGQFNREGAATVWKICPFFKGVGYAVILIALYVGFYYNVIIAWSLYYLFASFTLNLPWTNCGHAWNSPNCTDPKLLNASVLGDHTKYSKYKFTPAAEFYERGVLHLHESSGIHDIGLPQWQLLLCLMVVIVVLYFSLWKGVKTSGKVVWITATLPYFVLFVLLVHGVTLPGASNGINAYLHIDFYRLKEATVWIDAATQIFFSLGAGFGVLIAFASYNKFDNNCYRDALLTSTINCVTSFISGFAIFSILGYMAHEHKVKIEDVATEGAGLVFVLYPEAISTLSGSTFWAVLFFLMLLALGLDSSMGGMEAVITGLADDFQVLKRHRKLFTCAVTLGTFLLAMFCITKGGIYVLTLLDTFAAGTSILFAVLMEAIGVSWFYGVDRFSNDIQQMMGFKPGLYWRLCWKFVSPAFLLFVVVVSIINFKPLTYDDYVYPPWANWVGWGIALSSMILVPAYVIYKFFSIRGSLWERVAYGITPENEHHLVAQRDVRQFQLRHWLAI
T1 sequence (P31652 whole entry): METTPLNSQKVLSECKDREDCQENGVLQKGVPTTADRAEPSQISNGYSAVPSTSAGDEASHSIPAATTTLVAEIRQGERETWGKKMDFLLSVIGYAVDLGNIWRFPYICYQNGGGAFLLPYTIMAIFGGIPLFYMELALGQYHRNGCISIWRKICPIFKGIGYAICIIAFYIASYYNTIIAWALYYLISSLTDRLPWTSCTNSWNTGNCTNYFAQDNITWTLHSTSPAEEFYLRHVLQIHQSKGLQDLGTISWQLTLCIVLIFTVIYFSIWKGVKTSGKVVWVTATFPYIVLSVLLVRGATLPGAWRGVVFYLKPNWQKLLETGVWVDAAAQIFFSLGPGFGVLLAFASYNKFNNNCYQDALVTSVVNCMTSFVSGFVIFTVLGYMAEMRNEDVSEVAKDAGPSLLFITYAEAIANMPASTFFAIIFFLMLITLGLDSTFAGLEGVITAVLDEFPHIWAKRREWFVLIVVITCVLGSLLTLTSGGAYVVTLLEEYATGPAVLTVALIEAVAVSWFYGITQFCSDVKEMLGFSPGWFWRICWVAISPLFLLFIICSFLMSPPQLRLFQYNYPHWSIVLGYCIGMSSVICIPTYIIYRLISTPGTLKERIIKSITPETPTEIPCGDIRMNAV

How did the serotonin reuptake inhibition [1] turn out when `Cc1cccc(Sc2ccccc2C2=CCNCC2)c1C` [Compound 33, 4-[2-(2,3-Dimethyl-phenylsulfanyl)-phenyl]-1,2,3,6-tetrahydro-pyridine] was run?
Its serotonin reuptake inhibition is “did show serotonin reuptake inhibition”.

And the norepinephrine uptake inhibition [2]?
Its norepinephrine uptake inhibition is “did not show norepinephrine uptake inhibition”.

Which serotonin reuptake inhibition [1] does the source give for `COc1ccc(Sc2ccccc2C2=CCNCC2)c(C)c1` [Compound 37, 4-[2-(4-Methoxy-2-methyl-phenylsulfanyl)-phenyl]-1,2,3,6-tetrahydro-pyridine] here?
Its serotonin reuptake inhibition is “did show serotonin reuptake inhibition”.

What about the norepinephrine uptake inhibition [2] of the same compound?
Its norepinephrine uptake inhibition is “did not show norepinephrine uptake inhibition”.

What does the source list for `Cc1ccc(Sc2ccc(C)cc2C2=CCNCC2)c(F)c1` [Compound 52, 4-[2-(2-Fluoro-4-methyl-phenylsulfanyl)-5-methyl-phenyl]-1,2,3,6-tetrahydro-pyridine]?
serotonin reuptake inhibition [1]: did show serotonin reuptake inhibition; norepinephrine uptake inhibition [2]: did not show norepinephrine uptake inhibition

Which results are given for `COc1ccc(Sc2ccc(C)cc2C2=CCNCC2)c(F)c1` [Compound 61, 4-[2-(2-Fluoro-4-methoxy-phenylsulfanyl)-5-methyl-phenyl]-1,2,3,6-tetrahydro-pyridine]?
serotonin reuptake inhibition [1]: did show serotonin reuptake inhibition; norepinephrine uptake inhibition [2]: did not show norepinephrine uptake inhibition

Which results are given for `Fc1cccc(Sc2ccccc2C2=CCNCC2)c1F` [Compound 83, 4-[2-(2,3-Difluoro-phenylsulfanyl)-phenyl]-1,2,3,6-tetrahydro-pyridine]?
serotonin reuptake inhibition [1]: did show serotonin reuptake inhibition; norepinephrine uptake inhibition [2]: did not show norepinephrine uptake inhibition

`Cc1ccc(Sc2ccccc2C2=CCNCC2)c(Cl)c1` [Compound 84, 4-[2-(2-Chloro-4-methyl-phenylsulfanyl)-phenyl]-1,2,3,6-tetrahydro-pyridine] was tested. Which serotonin reuptake inhibition [1] did it give?
The serotonin reuptake inhibition was “did show serotonin reuptake inhibition”.

And the norepinephrine uptake inhibition [2]?
Its norepinephrine uptake inhibition is “did not show norepinephrine uptake inhibition”.

Which serotonin reuptake inhibition [1] does the source give for `Cc1ccc(Sc2cccc(Cl)c2F)c(C2=CCNCC2)c1` [Compound 86] here?
Its serotonin reuptake inhibition is “did show serotonin reuptake inhibition”.

What about the norepinephrine uptake inhibition [2] of the same compound?
Its norepinephrine uptake inhibition is “did not show norepinephrine uptake inhibition”.

With `Cc1c(F)cccc1Sc1ccccc1C1=CCNCC1` [Compound 87, 4-[2-(3-Fluoro-2-methyl-phenylsulfanyl)-phenyl]-1,2,3,6-tetrahydro-pyridine] as the compound, how does the serotonin reuptake inhibition [1] read?
The serotonin reuptake inhibition was “did show serotonin reuptake inhibition”.

And the norepinephrine uptake inhibition [2]?
The norepinephrine uptake inhibition was “did not show norepinephrine uptake inhibition”.

For `Cc1ccc(Sc2cccc(F)c2C)c(C2=CCNCC2)c1` [Compound 89, 4-[2-(3-Fluoro-2-methyl-phenylsulfanyl)-5-methyl-phenyl]-1,2,3,6-tetrahydro-pyridine], which serotonin reuptake inhibition [1] is on record?
The serotonin reuptake inhibition was “did show serotonin reuptake inhibition”.

And the norepinephrine uptake inhibition [2]?
The norepinephrine uptake inhibition was “did not show norepinephrine uptake inhibition”.

How did the serotonin reuptake inhibition [1] turn out when `Cc1ccc(Sc2ccc(C)c(F)c2)c(C2=CCNCC2)c1` [Compound 128, 4-[2-(3-Fluoro-4-methyl-phenylsulfanyl)-5-methyl-phenyl]-1,2,3,6-tetrahydro-pyridine] was run?
Its serotonin reuptake inhibition is “did show serotonin reuptake inhibition”.

What about the norepinephrine uptake inhibition [2] of the same compound?
The norepinephrine uptake inhibition was “did not show norepinephrine uptake inhibition”.
